The CheMixHub ionic liquid set
± gives the uncertainty stated by the source.

Test: xn = mol fraction of the nth substance listed
Details: 100 kPa

CCCCCCCC[n+]1ccccc1.[Br-] + CC(C)C[C@H](N)C(=O)O + O
electrical conductivity (288.15 K, x2 = 0.0008942, x1 = 0.006691): 1.27 ± 0.076 S/m
electrical conductivity (288.15 K, x2 = 0.0008943, x1 = 0.006585): 1.26 ± 0.075 S/m
electrical conductivity (288.15 K, x2 = 0.0008945, x1 = 0.006321): 1.23 ± 0.074 S/m
electrical conductivity (288.15 K, x2 = 0.0008948, x1 = 0.005952): 1.19 ± 0.072 S/m
electrical conductivity (288.15 K, x2 = 0.0008952, x1 = 0.005558): 1.15 ± 0.069 S/m
electrical conductivity (288.15 K, x2 = 0.0008956, x1 = 0.005126): 1.11 ± 0.067 S/m
electrical conductivity (288.15 K, x2 = 0.000896, x1 = 0.004648): 1.05 ± 0.063 S/m
electrical conductivity (288.15 K, x2 = 0.0008965, x1 = 0.00414): 0.989 ± 0.059 S/m
electrical conductivity (288.15 K, x2 = 0.000897, x1 = 0.003579): 0.891 ± 0.053 S/m
electrical conductivity (288.15 K, x2 = 0.0008975, x1 = 0.002951): 0.778 ± 0.047 S/m
electrical conductivity (288.15 K, x2 = 0.0008982, x1 = 0.002257): 0.635 ± 0.038 S/m
electrical conductivity (288.15 K, x2 = 0.0008986, x1 = 0.001784): 0.529 ± 0.032 S/m
electrical conductivity (288.15 K, x2 = 0.000899, x1 = 0.001328): 0.417 ± 0.025 S/m
electrical conductivity (288.15 K, x2 = 0.0008994, x1 = 0.0008528): 0.298 ± 0.018 S/m
electrical conductivity (288.15 K, x2 = 0.001786, x1 = 0.007009): 1.29 ± 0.077 S/m
electrical conductivity (288.15 K, x2 = 0.001787, x1 = 0.006296): 1.21 ± 0.073 S/m
electrical conductivity (288.15 K, x2 = 0.001787, x1 = 0.006626): 1.25 ± 0.075 S/m
electrical conductivity (288.15 K, x2 = 0.001788, x1 = 0.005936): 1.17 ± 0.07 S/m
electrical conductivity (288.15 K, x2 = 0.001789, x1 = 0.005553): 1.12 ± 0.068 S/m
electrical conductivity (288.15 K, x2 = 0.00179, x1 = 0.004654): 1.02 ± 0.062 S/m
electrical conductivity (288.15 K, x2 = 0.00179, x1 = 0.005124): 1.08 ± 0.065 S/m
electrical conductivity (288.15 K, x2 = 0.001791, x1 = 0.004138): 0.963 ± 0.058 S/m
electrical conductivity (288.15 K, x2 = 0.001792, x1 = 0.00359): 0.869 ± 0.052 S/m
electrical conductivity (288.15 K, x2 = 0.001793, x1 = 0.002944): 0.753 ± 0.045 S/m
electrical conductivity (288.15 K, x2 = 0.001795, x1 = 0.001946): 0.545 ± 0.033 S/m
electrical conductivity (288.15 K, x2 = 0.001795, x1 = 0.002309): 0.625 ± 0.037 S/m
electrical conductivity (288.15 K, x2 = 0.001796, x1 = 0.00149): 0.443 ± 0.027 S/m
electrical conductivity (288.15 K, x2 = 0.001797, x1 = 0.0009613): 0.319 ± 0.019 S/m
electrical conductivity (293.15 K, x2 = 0.0008942, x1 = 0.006678): 1.44 ± 0.086 S/m
electrical conductivity (293.15 K, x2 = 0.0008943, x1 = 0.006573): 1.42 ± 0.085 S/m
electrical conductivity (293.15 K, x2 = 0.0008945, x1 = 0.00631): 1.39 ± 0.084 S/m
electrical conductivity (293.15 K, x2 = 0.0008948, x1 = 0.005941): 1.35 ± 0.081 S/m
electrical conductivity (293.15 K, x2 = 0.0008952, x1 = 0.005547): 1.3 ± 0.078 S/m
electrical conductivity (293.15 K, x2 = 0.0008956, x1 = 0.005117): 1.26 ± 0.075 S/m
electrical conductivity (293.15 K, x2 = 0.000896, x1 = 0.004639): 1.19 ± 0.072 S/m
electrical conductivity (293.15 K, x2 = 0.0008965, x1 = 0.004133): 1.12 ± 0.067 S/m
electrical conductivity (293.15 K, x2 = 0.000897, x1 = 0.003572): 1.01 ± 0.061 S/m
electrical conductivity (293.15 K, x2 = 0.0008975, x1 = 0.002945): 0.879 ± 0.053 S/m
electrical conductivity (293.15 K, x2 = 0.0008982, x1 = 0.002253): 0.718 ± 0.043 S/m
electrical conductivity (293.15 K, x2 = 0.0008986, x1 = 0.001782): 0.597 ± 0.036 S/m
electrical conductivity (293.15 K, x2 = 0.000899, x1 = 0.001327): 0.47 ± 0.028 S/m
electrical conductivity (293.15 K, x2 = 0.0008994, x1 = 0.000851): 0.333 ± 0.02 S/m
electrical conductivity (293.15 K, x2 = 0.001786, x1 = 0.006996): 1.47 ± 0.088 S/m
electrical conductivity (293.15 K, x2 = 0.001787, x1 = 0.006286): 1.38 ± 0.083 S/m
electrical conductivity (293.15 K, x2 = 0.001787, x1 = 0.006613): 1.43 ± 0.086 S/m
electrical conductivity (293.15 K, x2 = 0.001788, x1 = 0.005926): 1.33 ± 0.08 S/m
electrical conductivity (293.15 K, x2 = 0.001789, x1 = 0.005542): 1.28 ± 0.077 S/m
electrical conductivity (293.15 K, x2 = 0.00179, x1 = 0.004645): 1.16 ± 0.07 S/m
electrical conductivity (293.15 K, x2 = 0.00179, x1 = 0.005113): 1.23 ± 0.074 S/m
electrical conductivity (293.15 K, x2 = 0.001791, x1 = 0.004131): 1.09 ± 0.065 S/m
electrical conductivity (293.15 K, x2 = 0.001792, x1 = 0.003584): 0.986 ± 0.059 S/m
electrical conductivity (293.15 K, x2 = 0.001793, x1 = 0.002938): 0.852 ± 0.051 S/m
electrical conductivity (293.15 K, x2 = 0.001795, x1 = 0.001937): 0.616 ± 0.037 S/m
electrical conductivity (293.15 K, x2 = 0.001795, x1 = 0.002304): 0.706 ± 0.042 S/m
electrical conductivity (293.15 K, x2 = 0.001796, x1 = 0.001487): 0.497 ± 0.03 S/m
electrical conductivity (293.15 K, x2 = 0.001797, x1 = 0.0009613): 0.359 ± 0.022 S/m
electrical conductivity (298.15 K, x2 = 0.0008942, x1 = 0.006669): 1.62 ± 0.097 S/m
electrical conductivity (298.15 K, x2 = 0.0008943, x1 = 0.006564): 1.6 ± 0.096 S/m
electrical conductivity (298.15 K, x2 = 0.0008945, x1 = 0.006301): 1.57 ± 0.094 S/m
electrical conductivity (298.15 K, x2 = 0.0008948, x1 = 0.005934): 1.52 ± 0.091 S/m
electrical conductivity (298.15 K, x2 = 0.0008952, x1 = 0.00554): 1.47 ± 0.088 S/m
electrical conductivity (298.15 K, x2 = 0.0008956, x1 = 0.00511): 1.41 ± 0.085 S/m
electrical conductivity (298.15 K, x2 = 0.000896, x1 = 0.004634): 1.34 ± 0.081 S/m
electrical conductivity (298.15 K, x2 = 0.0008965, x1 = 0.004127): 1.25 ± 0.075 S/m
electrical conductivity (298.15 K, x2 = 0.000897, x1 = 0.003568): 1.13 ± 0.068 S/m
electrical conductivity (298.15 K, x2 = 0.0008975, x1 = 0.002942): 0.987 ± 0.059 S/m
electrical conductivity (298.15 K, x2 = 0.0008982, x1 = 0.002249): 0.803 ± 0.048 S/m
electrical conductivity (298.15 K, x2 = 0.0008986, x1 = 0.00178): 0.668 ± 0.04 S/m
electrical conductivity (298.15 K, x2 = 0.000899, x1 = 0.001325): 0.525 ± 0.032 S/m
electrical conductivity (298.15 K, x2 = 0.0008994, x1 = 0.000851): 0.369 ± 0.022 S/m
